What was measured:
[1] = Incorporation of quercetin in microbial carriers, extraction and absorbance at 388 nm (incorporation yield and efficiency); type: physicochemical; settings: cell incorporation process
Protocol: The phrases “loading efficiency” or “incorporation efficiency” interchangeably refer to the incorporation efficiency on both wet basis determined as follows: IE(%)=CE/CT×100, where CE is the mass of extracted bioactive from the lipid membrane microcapsules after incorporation on a wet basis and CT is the amount of bioactive initially added to the lipid membrane microcapsules. A standard calibration curve was spectrophotometrically obtained for quercetin (QU995 is the food-grade form of quercetin) in dimethyl sulfoxide (DMSO). Incorporation of quercetin in yeast cells with ethanol-buffer mixture was achieved by a non-thermal, vacuum infusion method. Inactivated food-grade yeast cells were used to incorporate quercetin with an initial aim of achieving an incorporation yield or loading percent of 0.5%. The dry yeast cells were first washed with deionized water and an ethanol solution. The washed cells were weighed for use as control (without quercetin) and sample (with quercetin). The incorporation was done in high vacuum conditions and the control and sample were incubated in the dark. […] A 500 μL of supernatant was removed and measured absorbance at 388 nm. […] The problem encountered in a quadruple infusion was crystallization of quercetin around carriers, instead of being incorporated (determined by a multiphoton fluorescence imaging). […]

[2] = pH stability for quercetin in yeast, in L. casei and unincorporated quercetin; type: physicochemical; settings: pH 3, 4, 5, 6 over time; extraction at every time point
Protocol: A comparative pH test at different pH's (3, 4, 5, 6) was done with quercetin incorporated in yeast, in L. casei and un-incorporated quercetin. At every time point, an extraction was done to spectrophotometrically determine the amount of quercetin retained. […] The percent retention is calculated by dividing the absorbance value at each time point with the absorbance value at the initial t=0.

amount of quercetin that can efficiently incorporate into the cells [1]: 12.517 mg/g
pH stability (amount of quercetin retained) [2]: rapid degradation over time
Structure (SMILES): O=c1c(O)c(-c2ccc(O)c(O)c2)oc2cc(O)cc(O)c12 [quercetin]
